Biological target: ex-LdtMt2 (LdtMt2; MT2594; product of gene Rv2518c) (Mycobacterium tuberculosis, UniProt O53223)
Test: isothermal titration calorimetry, single-site model
Assay type: binding

`C[C@@H](O)[C@H]1C(=O)N2C(C(=O)O)=C(SCCN=CN)C[C@H]12` [imipenem] was tested. Which Kd did it give?
The Kd was 54.8 ± 8.8 nM.
